Laboratory results: patent publication US20160168140A1, “HETEROCYCLIC COMPOUNDS AS ANTIBIOTIC POTENTIATORS” (priority 2014, published 2016)

Test system: Acinetobacter baumannii (Ab23)
Assay: MIC shift assay of antibiotics (broth microdilution)
Type: cell-based
Conditions: compound concentration 2 μM; fold shift of colistin MIC; nc = no changeover or no shift
In short: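 Broth microdilution MIC shift assay against Acinetobacter baumannii. Overnight cultures in cation-adjusted Mueller Hinton broth at 37° C. were sub-cultured 1:200, grown to OD600=0.5 to 0.8, diluted to OD600=0.01, and added (50 μL) to wells holding 50 μL of 2× antibiotic stocks for a starting OD600 of 0.005. After 18 to 20 h at 37° C. with shaking, OD600 was read to obtain MICs.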

`FC(F)(F)c1ccc2c(-c3ccc4ccccc4c3)n[nH]c2c1` [compound 540] was tested, and the “colistin MIC shift, Ab23 at (compd concentration)” value (shortened to “colistin MIC shift, Ab23”) was 4x.

Same assay, conditions: compound concentration 4 μM; fold shift of colistin MIC; nc = no changeover or no shift

Compared with `Cc1c(Br)ccc2c(NCCCN(C)C)nc(-c3cc(Br)cc(C(F)(F)F)c3)nc12` [compound 512], `Cc1cccc2c(NCCCN(C)C)nc(-c3cc(-c4ccccc4Cl)cc(C(F)(F)F)c3)nc12` [compound 513] is lower in “colistin MIC shift, Ab23” value: 64x for the first, 32x for the second.

Going from `CN(C)CCCNc1nc(-c2cc(-c3ccccc3)cc(C(F)(F)F)c2)nc2c(C(F)(F)F)cccc12` [compound 514] to `CN(C)CCCNc1nc(-c2cc(Br)cc(C(F)(F)F)c2)nc2ccc(Br)cc12` [compound 515], the “colistin MIC shift, Ab23” value falls from 16x to 8x.

First: Clc1ccc2c(-c3cccc(-c4ccccc4)c3)n[nH]c2c1 [compound 526]
Second: FC(F)(F)c1ccc2c(-c3ccc(Cl)c(Cl)c3)n[nH]c2c1 [compound 541]
The “colistin MIC shift, Ab23” value of the first is lower: 1x for the first, 32x for the second.

Going from `FC(F)(F)c1ccc2c(-c3cccc(Cl)c3Cl)n[nH]c2c1` [compound 543] to `Fc1cc(C(F)(F)F)ccc1-c1n[nH]c2cc(C(F)(F)F)ccc12` [compound 544], the “colistin MIC shift, Ab23” value rises from 1x to 8x.

Going from `CN(C)CCCNc1nc(-c2cn(Cc3ccccc3)c3c(Cl)cccc23)nc2c(Cl)cccc12` [compound 567] to `CN(C)CCCNc1nc(-c2cn(Cc3ccccc3)c3c(Cl)cccc23)nc2c(Br)cccc12` [compound 569], the “colistin MIC shift, Ab23” value falls from 16x to 8x.

Compared with `CN(C)CCCNc1nc(-c2cn(Cc3ccccc3)c3c(Cl)cccc23)nc2c(-c3ccncc3)cccc12` [compound 571], `Cc1ccc(Cn2cc(-c3nc(NCCCN(C)C)c4cccc(C)c4n3)c3cccc(Cl)c32)cc1` [compound 573] is higher in “colistin MIC shift, Ab23” value: 4x for the first, 16x for the second.

`Cc1cccc(Cn2cc(-c3nc(NCCCN(C)C)c4cccc(C)c4n3)c3cccc(Cl)c32)c1` [compound 575] and `Cc1cccc2c(NCCCN(C)C)nc(-c3cn(Cc4ccc(Cl)cc4)c4c(Cl)cccc34)nc12` [compound 577] are the same in “colistin MIC shift, Ab23” value: 16x for the first, 16x for the second.

First: Cc1cccc2c(NCCCN(C)C)nc(-c3cn(Cc4cccc(Cl)c4)c4c(Cl)cccc34)nc12 [compound 579]
Second: CNCCCNc1nc(-c2cn(Cc3ccccc3)c3c(Cl)cccc23)nc2c(C)cccc12 [compound 580]
The “colistin MIC shift, Ab23” value of the first is higher: 16x for the first, 8x for the second.

Compared with `Cc1cccc2c(N(C)CCCN(C)C)nc(-c3cn(Cc4ccc(Cl)cc4)c4c(Cl)cccc34)nc12` [compound 582], `CNCCCNc1nc(-c2cn(Cc3ccc(Cl)cc3)c3c(Cl)cccc23)nc2c(C)cccc12` [compound 583] is lower in “colistin MIC shift, Ab23” value: 8x for the first, 4x for the second.

Going from `CN(C)CCCNc1nc(-c2cn(Cc3ccccc3)c3c(Cl)cccc23)nc2cc(Cl)ccc12` [compound 585] to `Cc1cccc2c(NCCCN(C)C)nc(-c3cn(Cc4ccccc4)c4cc(Cl)ccc34)nc12` [compound 586], the “colistin MIC shift, Ab23” value rises from 8x to 16x.

`CN(C)CCCNc1nc(-c2csc3ccc(Cl)cc23)nc2c(Cl)cccc12` [compound 592] and “(S)-2-amino-1-(5-chloro-3-(3,4-dichlorophenyl)-1H-indol-1-yl)butan-1-one methanesulfonate salt [compound 460]” are the same in “colistin MIC shift, Ab23” value: 32x for the first, 32x for the second.

In the case of “E-1-(5-bromo-3-(3,4-dichlorostyryl)-1H-indol-1-yl)-2-(dimethylamino)ethan-1-one [compound 457]”, the “colistin MIC shift, Ab23” value is reported as 16x.

`CN(C)CCCNc1nc(-c2cn(Cc3ccccc3)c3c(Cl)cccc23)nc2c(F)cccc12` [compound 565] was tested, and the “colistin MIC shift, Ab23” value was 2-4x.

Same assay, conditions: compound concentration 10 μM; fold shift of colistin MIC; nc = no changeover or no shift

`Cc1ccc2nc(-c3cc(Br)cc(C(F)(F)F)c3)nc(NCCCN(C)C)c2c1` [compound 516] and `FC(F)(F)c1cc(Br)cc(-c2n[nH]c3cc(C(F)(F)F)ccc23)c1` [compound 548] are the same in “colistin MIC shift, Ab23” value: 16x for the first, 16x for the second.

Going from `FC(F)(F)c1cccc(-c2cccc(-c3n[nH]c4ccc(Cl)cc34)c2)c1` [compound 525] to `FC(F)(F)c1cccc(-c2cccc(-c3n[nH]c4cc(C(F)(F)F)ccc34)c2)c1` [compound 529], the “colistin MIC shift, Ab23” value rises from 1x to 8x.

Compared with `FC(F)(F)c1ccc2c(-c3cccc(-c4ccc(Cl)c(Cl)c4)c3)n[nH]c2c1` [compound 527], `FC(F)(F)c1ccc2c(-c3cccc(-c4cc(Cl)cc(Cl)c4)c3)n[nH]c2c1` [compound 530] is lower in “colistin MIC shift, Ab23” value: 8x for the first, 4x for the second.

Going from `Fc1cc(-c2cccc(-c3n[nH]c4cc(C(F)(F)F)ccc34)c2)ccc1C(F)(F)F` [compound 528] to `Fc1cc(C(F)(F)F)ccc1-c1cccc(-c2n[nH]c3cc(C(F)(F)F)ccc23)c1` [compound 531], the “colistin MIC shift, Ab23” value falls from 8x to 4x.

Going from `Clc1ccc2[nH]nc(-c3cccc(-c4ccc(Cl)c(Cl)c4)c3)c2c1` [compound 532] to `FC(F)(F)c1ccc2[nH]nc(-c3ccc(Cl)c(Cl)c3)c2c1` [compound 555], the “colistin MIC shift, Ab23” value rises from 4x to 32x.

`Clc1cccc(Cn2nc(-c3cccc(-c4ccccc4)c3)c3cc(Cl)ccc32)c1` [compound 533] and `FC(F)(F)c1ccc2c(-c3ccc(Cl)c(Cl)c3)nn(Cc3cccc(Cl)c3)c2c1` [compound 545] are the same in “colistin MIC shift, Ab23” value: 1x for the first, 1x for the second.

`Fc1ccc2c(-c3cccc(Cl)c3)n[nH]c2c1` [compound 534] and `Cc1cccc(-c2n[nH]c3cc(F)ccc23)c1` [compound 535] are the same in “colistin MIC shift, Ab23” value: 1x for the first, 1x for the second.

Going from `FC(F)(F)c1cccc(-c2n[nH]c3cc(C(F)(F)F)ccc23)c1` [compound 536] to `Fc1cc(-c2n[nH]c3cc(C(F)(F)F)ccc23)ccc1C(F)(F)F` [compound 546], the “colistin MIC shift, Ab23” value falls from 16x to 1x.

Going from `N#Cc1cccc(-c2n[nH]c3cc(F)ccc23)c1` [compound 538] to `Clc1ccc(-c2n[nH]c3cc(Br)ccc23)cc1Cl` [compound 559], the “colistin MIC shift, Ab23” value rises from 1x to 8x.

First: Fc1cc(-c2n[nH]c3ccc(Cl)cc23)ccc1C(F)(F)F [compound 539]
Second: Fc1ccc(-c2n[nH]c3cc(C(F)(F)F)ccc23)cc1C(F)(F)F [compound 549]
The “colistin MIC shift, Ab23” value of the first is lower: 4x for the first, 32x for the second.

`FC(F)(F)c1ccc2c(-c3ccc(Cl)c(Cl)c3)nn(Cc3ccc(Cl)cc3)c2c1` [compound 542] and `O=C(c1ccc(Cl)c(Cl)c1)n1nc(-c2ccc(Cl)c(Cl)c2)c2ccc(C(F)(F)F)cc21` [compound 558] are the same in “colistin MIC shift, Ab23” value: 1x for the first, 1x for the second.

Compared with `FC(F)(F)c1ccc2c(-c3ccccc3C(F)(F)F)n[nH]c2c1` [compound 547], `FC(F)(F)c1cc(Cl)cc(-c2n[nH]c3cc(C(F)(F)F)ccc23)c1` [compound 551] is higher in “colistin MIC shift, Ab23” value: 1x for the first, 32x for the second.

Going from `Fc1cc(-c2n[nH]c3cc(C(F)(F)F)ccc23)cc(C(F)(F)F)c1` [compound 550] to `Nc1cc(-c2n[nH]c3cc(C(F)(F)F)ccc23)cc(C(F)(F)F)c1` [compound 554], the “colistin MIC shift, Ab23” value falls from 64x to 8x.

Compared with `COc1cc(-c2n[nH]c3cc(C(F)(F)F)ccc23)cc(C(F)(F)F)c1` [compound 552], `COC(=O)c1cc(-c2n[nH]c3cc(C(F)(F)F)ccc23)cc(C(F)(F)F)c1` [compound 553] is lower in “colistin MIC shift, Ab23” value: 8x for the first, 1x for the second.

Going from `CN(C)CCCNc1nc(-c2cn(Cc3ccccc3)c3c(Cl)cccc23)nc2ccccc12` [compound 563] to `Cc1cccc2c(NCCCN(C)C)nc(-c3cn(Cc4ccccc4)c4ccc(Cl)cc34)nc12` [compound 587], the “colistin MIC shift, Ab23” value rises from 8x to 16x.
